Test results as given in ChEMBL document CHEMBL1143532 (Bioorg Med Chem Lett, 2005).

How the values were obtained:
[1] = molecular target: Neuronal acetylcholine receptor; alpha4/beta2 (Homo sapiens, UniProt P17787+P43681); experiment: Binding affinity towards Nicotinic acetylcholine receptor alpha4-beta2; Not significant; assay type: protein complex
[2] = molecular target: T1, Neuronal acetylcholine receptor subunit alpha-7 (Rattus norvegicus, UniProt Q05941); experiment: Inhibitory constant against [3H]methyllycaconitine binding towards Nicotinic acetylcholine receptor alpha-7 of rat brain hippocampus; assay type: tissue-based
T1 sequence (Q05941 whole entry): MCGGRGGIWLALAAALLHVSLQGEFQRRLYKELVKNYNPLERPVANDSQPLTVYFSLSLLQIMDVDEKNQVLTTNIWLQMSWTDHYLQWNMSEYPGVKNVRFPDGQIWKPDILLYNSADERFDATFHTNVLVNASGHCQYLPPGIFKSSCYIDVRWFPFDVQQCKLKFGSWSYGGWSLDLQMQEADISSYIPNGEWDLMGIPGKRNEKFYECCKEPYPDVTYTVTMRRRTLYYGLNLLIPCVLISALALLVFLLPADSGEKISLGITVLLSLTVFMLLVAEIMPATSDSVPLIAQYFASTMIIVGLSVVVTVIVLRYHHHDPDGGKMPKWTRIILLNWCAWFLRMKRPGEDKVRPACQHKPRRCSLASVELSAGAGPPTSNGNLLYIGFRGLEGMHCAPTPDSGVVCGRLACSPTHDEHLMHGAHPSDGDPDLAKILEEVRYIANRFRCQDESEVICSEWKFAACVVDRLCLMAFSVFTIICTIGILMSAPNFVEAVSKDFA

[3] = molecular target: Neuronal acetylcholine receptor subunit alpha-7 (Rattus norvegicus) (UniProt Q05941); experiment: Intrinsic activity against rat nicotinic acetylcholine alpha-7 subunit expressed in Xenopus oocytes as current activation; assay type: functional, cell-based; settings: Oocyte
Neuronal acetylcholine receptor subunit alpha-7 (Rattus norvegicus), sequence (Q05941 whole entry): as above

[4] = molecular target: T1, Neuronal acetylcholine receptor subunit alpha-7; experiment: Potency against rat nicotinic acetylcholine alpha-7 subunit expressed in Xenopus oocytes as current activation; assay type: functional, cell-based, Oocyte

Neuronal acetylcholine receptor; alpha4/beta2, sequence (P17787 whole entry): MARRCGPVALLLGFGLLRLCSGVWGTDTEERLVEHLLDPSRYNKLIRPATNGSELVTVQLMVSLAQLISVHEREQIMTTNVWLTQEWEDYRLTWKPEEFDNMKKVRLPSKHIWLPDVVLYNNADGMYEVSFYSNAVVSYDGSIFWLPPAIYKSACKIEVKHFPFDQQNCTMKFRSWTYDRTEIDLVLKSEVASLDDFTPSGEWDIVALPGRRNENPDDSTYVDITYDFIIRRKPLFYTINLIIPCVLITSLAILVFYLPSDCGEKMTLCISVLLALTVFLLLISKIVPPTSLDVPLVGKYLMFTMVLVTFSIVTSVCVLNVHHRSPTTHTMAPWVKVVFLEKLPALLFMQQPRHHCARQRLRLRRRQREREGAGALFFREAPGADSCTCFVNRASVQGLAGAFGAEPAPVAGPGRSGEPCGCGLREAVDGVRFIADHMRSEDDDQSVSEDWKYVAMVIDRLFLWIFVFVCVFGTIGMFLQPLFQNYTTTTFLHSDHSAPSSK
Neuronal acetylcholine receptor; alpha4/beta2, sequence (P43681 whole entry): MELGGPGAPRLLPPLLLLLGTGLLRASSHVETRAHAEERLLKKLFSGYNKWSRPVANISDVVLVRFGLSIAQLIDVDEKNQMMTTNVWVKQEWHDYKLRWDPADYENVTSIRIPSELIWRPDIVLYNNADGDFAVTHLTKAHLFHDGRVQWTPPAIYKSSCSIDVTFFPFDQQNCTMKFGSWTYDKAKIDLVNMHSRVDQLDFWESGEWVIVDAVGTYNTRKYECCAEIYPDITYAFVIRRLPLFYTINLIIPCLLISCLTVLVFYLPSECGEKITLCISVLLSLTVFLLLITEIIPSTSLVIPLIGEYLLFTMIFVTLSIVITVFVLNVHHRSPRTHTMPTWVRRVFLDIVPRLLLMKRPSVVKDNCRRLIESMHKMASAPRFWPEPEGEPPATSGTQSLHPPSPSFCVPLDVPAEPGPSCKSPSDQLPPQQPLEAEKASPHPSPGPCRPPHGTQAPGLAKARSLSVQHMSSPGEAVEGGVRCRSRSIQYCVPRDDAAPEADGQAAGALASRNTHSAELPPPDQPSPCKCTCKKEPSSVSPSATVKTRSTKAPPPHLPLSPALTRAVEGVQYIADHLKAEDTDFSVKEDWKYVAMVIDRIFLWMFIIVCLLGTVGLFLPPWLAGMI

SMILES	Ki [1]	Ki [2]	Imax [3]	EC50 [4]
CC(C)Oc1cncc(C[C@@H]2[C@H](OC(=O)Nc3ccc(Br)cc3)C3CCN2CC3)c1	> 10 µM	7.02 µM		
CS(=O)(=O)c1ccc(C[C@@H]2[C@H](OC(=O)Nc3ccc(Br)cc3)C3CCN2CC3)cc1	> 10 µM	6.78 µM		
O=C(NCc1ccc(Br)cc1)N[C@@H]1C2CCN(CC2)[C@@H]1Cc1cccnc1	> 10 µM	0.274 µM		
CN(C)c1ccc(C[C@@H]2[C@H](OC(=O)Nc3ccc(Br)cc3)C3CCN2CC3)cc1	> 10 µM			
O=C(N[C@@H]1C2CCN(CC2)[C@@H]1Cc1cccnc1)c1ccsc1	> 10 µM	0.79 µM		
NC(=O)Cc1ccc(S(=O)(=O)N[C@@H]2C3CCN(CC3)[C@@H]2Cc2cccnc2)cc1	> 10 µM	0.146 µM		
O=C(Nc1ccccc1)OC1CN2CCC1CC2 (configuration not stated)	> 10 µM			
O=C(Nc1ccc(Br)cc1)O[C@@H]1C2CCN(CC2)[C@@H]1Cn1ccnc1	> 10 µM	0.01 µM		
O=C(N[C@@H]1C2CCN(CC2)[C@@H]1Cc1cccnc1)c1csc(Br)c1	> 10 µM	0.0004 µM		
O=C(Nc1ccccc1)O[C@@H]1C2CCN(CC2)[C@@H]1Cc1cccnc1	> 10 µM			
O=C(N[C@@H]1C2CCN(CC2)[C@@H]1Cc1cccnc1)c1ccc2ccccc2c1O	> 10 µM	0.001 µM		
O=C(Nc1ccc(Sc2ccccc2)cc1)O[C@@H]1C2CCN(CC2)[C@@H]1Cc1cccnc1	> 10 µM	0.009 µM		
COc1ccccc1NC(=O)N[C@@H]1C2CCN(CC2)[C@@H]1Cc1cccnc1	> 10 µM	0.03 µM		
O=C(Nc1ccc(Br)cc1)O[C@@H]1C2CCN(CC2)[C@@H]1Cc1cnc2ccccc2c1	> 10 µM	10 µM		
O=C(N[C@@H]1C2CCN(CC2)[C@@H]1Cc1cccnc1)c1c[nH]c2ccccc12	> 10 µM	0.008 µM		
O=C(Nc1ccc(Cl)c(Cl)c1)N[C@@H]1C2CCN(CC2)[C@@H]1Cc1cccnc1	> 10 µM	0.034 µM		
CSc1ccc(NC(=O)N[C@@H]2C3CCN(CC3)[C@@H]2Cc2cccnc2)cc1	> 10 µM	0.006 µM		
COc1ccncc1C[C@@H]1[C@H](OC(=O)Nc2ccc(Br)cc2)C2CCN1CC2	> 10 µM	0.029 µM		
O=C(Nc1ccc(Br)cc1)O[C@@H]1C2CCN(CC2)[C@@H]1Cc1cc2ccccc2o1	> 10 µM	8.39 µM		
O=C(Nc1ccc(Br)cc1)O[C@@H]1C2CCN(CC2)[C@@H]1Cc1ccco1	> 10 µM	0.234 µM		
O=C(Nc1ccc(Br)cc1)O[C@@H]1C2CCN(CC2)[C@@H]1Cc1ccc(F)cc1	> 10 µM	0.263 µM		

SMILES	Ki [1]	Ki [2]	Imax [3]	EC50 [4]
CN(C)c1ccc(NC(=O)N[C@@H]2C3CCN(CC3)[C@@H]2Cc2cccnc2)cc1	> 10 µM	0.038 µM		
COc1cccc(NC(=O)N[C@@H]2C3CCN(CC3)[C@@H]2Cc2cccnc2)c1	> 10 µM	0.043 µM		
COc1cncc(C[C@@H]2[C@H](OC(=O)Nc3ccc(Br)cc3)C3CCN2CC3)c1	> 10 µM	0.144 µM		
O=C(Nc1ccc(Br)cc1)O[C@@H]1C2CCN(CC2)[C@@H]1Cc1ccccn1	> 10 µM	> 10 µM		
C/C(=C\C(=O)N[C@@H]1C2CCN(CC2)[C@@H]1Cc1cccnc1)c1ccccc1	> 10 µM	0.087 µM		
O=C(Nc1ccc(Br)cc1)O[C@@H]1C2CCN(CC2)[C@@H]1Cc1cccnc1	> 10 µM			
Cn1cccc1C(=O)N[C@@H]1C2CCN(CC2)[C@@H]1Cc1cccnc1	> 10 µM	0.155 µM		
O=C(Nc1ccc(Oc2ccccc2)cc1)N[C@@H]1C2CCN(CC2)[C@@H]1Cc1cccnc1	> 10 µM	0.016 µM		
O=C(Nc1cccc(Br)c1)N[C@@H]1C2CCN(CC2)[C@@H]1Cc1cccnc1	> 10 µM	0.052 µM		
O=S(=O)(N[C@@H]1C2CCN(CC2)[C@@H]1Cc1cccnc1)c1ccccc1	> 10 µM	0.418 µM		
O=C(Nc1ccc(-c2ccccc2)cc1)N[C@@H]1C2CCN(CC2)[C@@H]1Cc1cccnc1	> 10 µM	0.424 µM		
O=C(NC1CC1c1ccccc1)O[C@@H]1C2CCN(CC2)[C@@H]1Cc1cccnc1 (some centres not stated)	> 10 µM	0.103 µM		
O=C(N[C@@H]1C2CCN(CC2)[C@@H]1Cc1cccnc1)c1cc2ccccc2o1			1	
O=C(N[C@@H]1C2CCN(CC2)[C@@H]1Cc1cccnc1)c1cccc(Br)c1	> 10 µM	0.064 µM		
O=C(Nc1ccc(Br)cc1)O[C@@H]1C2CCN(CC2)[C@@H]1Cc1cnccc1Oc1ccccc1	> 10 µM	> 10 µM		
O=C(Nc1ccc(Oc2ccccc2)cc1)O[C@@H]1C2CCN(CC2)[C@@H]1Cc1cccnc1	> 10 µM	0.05 µM		
O=C(Nc1ccc(-c2ccccc2)cc1)O[C@@H]1C2CCN(CC2)[C@@H]1Cc1cccnc1	> 10 µM	0.5 µM		
O=S(=O)(N[C@@H]1C2CCN(CC2)[C@@H]1Cc1cccnc1)c1ccc(Br)cc1	> 10 µM			
C/C(=C\c1ccccc1)C(=O)N[C@@H]1C2CCN(CC2)[C@@H]1Cc1cccnc1	> 10 µM	0.005 µM		
COc1ccc(S(=O)(=O)N[C@@H]2C3CCN(CC3)[C@@H]2Cc2cccnc2)cc1	> 10 µM	8.92 µM		
COc1ccc(C[C@@H]2[C@H](OC(=O)Nc3ccc(Br)cc3)C3CCN2CC3)cc1	> 10 µM	> 10 µM		

SMILES	Ki [1]	Ki [2]	Imax [3]	EC50 [4]
O=C(Nc1cccc(C(F)(F)F)c1)N[C@@H]1C2CCN(CC2)[C@@H]1Cc1cccnc1	> 10 µM	0.091 µM		
O=C(NC1CC1c1ccccc1)N[C@@H]1C2CCN(CC2)[C@@H]1Cc1cccnc1 (some centres not stated)	> 10 µM			
O=C(Nc1ccccc1)N[C@@H]1C2CCN(CC2)[C@@H]1Cc1cccnc1	> 10 µM	0.016 µM		
O=C(N[C@@H]1C2CCN(CC2)[C@@H]1Cc1cccnc1)c1ccc(Sc2ccccc2)cc1	> 10 µM			
O=C(Nc1ccc(Br)cc1)N[C@@H]1C2CCN(CC2)[C@@H]1Cc1cccnc1	> 10 µM	0.009 µM		
COc1ccc(NC(=O)N[C@@H]2C3CCN(CC3)[C@@H]2Cc2cccnc2)cc1	> 10 µM	0.037 µM		
O=C(Nc1ccc(F)cc1)O[C@@H]1C2CCN(CC2)[C@@H]1Cc1cccnc1	> 10 µM	0.006 µM		
O=C(Nc1cccc(F)c1)N[C@@H]1C2CCN(CC2)[C@@H]1Cc1cccnc1	> 10 µM	0.006 µM		
O=C(Nc1ccc(Br)cc1)O[C@@H]1C2CCN(CC2)[C@@H]1Cc1ccsc1	> 10 µM	0.534 µM		
O=S(=O)(Cc1ccccc1)N[C@@H]1C2CCN(CC2)[C@@H]1Cc1cccnc1	> 10 µM	8.84 µM		
O=C(Nc1ccc(Br)cc1)OC1CN2CCC1CC2 (configuration not stated)	> 10 µM			
COc1ccc(NC(=O)N[C@@H]2C3CCN(CC3)[C@@H]2Cc2cccnc2)c(OC)c1	> 10 µM	0.031 µM		
COc1ccc(NC(=O)O[C@@H]2C3CCN(CC3)[C@@H]2Cc2cccnc2)cc1	> 10 µM	0.005 µM	0.19	0.3 µM
N#Cc1cccc(NC(=O)N[C@@H]2C3CCN(CC3)[C@@H]2Cc2cccnc2)c1	> 10 µM	0.17 µM		
O=C(NCc1ccccc1)O[C@@H]1C2CCN(CC2)[C@@H]1Cc1cccnc1	> 10 µM	0.67 µM		
O=C(Nc1ccc(F)cc1)N[C@@H]1C2CCN(CC2)[C@@H]1Cc1cccnc1	> 10 µM	0.074 µM		
O=C(Nc1ccc(Sc2ccccc2)cc1)OC1CN2CCC1CC2 (configuration not stated)	> 10 µM	0.053 µM		
O=C(Nc1ccc(Br)cc1)O[C@@H]1C2CCN(CC2)[C@@H]1Cc1cncnc1	> 10 µM	0.04 µM		
Cn1cc(C(=O)N[C@@H]2C3CCN(CC3)[C@@H]2Cc2cccnc2)c2ccccc21	> 10 µM	0.521 µM		
O=C(Nc1ccc(Br)cc1)O[C@@H]1C2CCN(CC2)[C@@H]1Cc1ccccc1	> 10 µM	0.838 µM		
